Measured values: PMC9491098, “Discovery of novel drug-like antitubercular hits targeting the MEP pathway enzyme DXPS by strategic application of ligand-based virtual screening” (Chemical Science, 2022)
Converted amounts (≈) assume the structure as drawn. “And” between values parts separate entries of the source, which are not always exact repeats. Equal values may be shown once. Read-outs that look alike come from different tables or passages of the source.

What was measured:
E. coli TolC = assay: microbe, parasite or virus in culture; assay type: cell-based; details: Escherichia coli
[1] = metabolic stability in human liver S9 fraction; details: pooled liver S9 fraction
Method: For vitro assessment of metabolic stability, 10 µL of each compound (10 µM) was
incubated with human pooled liver S9-fraction (1 mg/mL, Corning, Corning, NY, USA)
in a master mix containing 2 mM NADP, 10 mM glucose-6-phosphate, 10 U/mL
glucose-6-phosphate dehydrogenase, 1 mM UDPGA, 0.1 mM PAPS, 10 mM MgCl2.
acetonitrile containing diphenhydramine as internal standard at 4 °C. The supernatant
was used for LC-MS analysis and half life time t1/2 was calculated from decreasing
concentrations/peak areas.
LC conditions: samples were analyzed with an Ultimate 3000 HPLC (Thermo Fisher,
Waltham, MA, USA) coupled to a TSQ Quantum Access Max triple quadrupole mass
spectrometer (Thermo Fisher, Waltham, MA, USA) in SRM mode. Analysis was
performed on a Nucleodur C18 Pyramid column (3 µm, 2x150 mm, Macherey-Nagel,
Düren, Germany) with a flow of 0.6 mL/min and a water (0.1% formic acid) and
acetonitrile (0.1% formic acid) eluent system. Gradient as follows: 10% acetonitrile for
1 min, 10–90% acetonitrile over 0.7 min, 90% acetonitrile for 1.8 min, equilibration at
10% acetonitrile for 1 min.
MS conditions: calibration of mass spectrometer parameters was performed
individually for each compound:

MtDXPS [2] = target: T1, MtDXPS (Mycobacterium tuberculosis, UniProt P9WNS3); assay: microscale thermophoresis (MST) dissociation constant; assay type: binding; details: Fig. 4F
Method: ETB + A <===> ETAB : Ka2 (Ka2 is the dissociation constant of pyruvate with […]
ETA + B <===> ETAB : Kb2 (Kb2 is the dissociation constant of ThDP with DXPS) E + I <===> EI* : Ki* (Ki* is the Morrison inhibition constant of inhibitor with apoDXPS) ETAB ---> ET + P : kcat (kcat is the catalytic constant of DXPS) […]
microscale thermophoresis (MST)
MST measurements were performed on a Monolith NT.115 (NanoTemper
Technologies GmbH, Germany) instrument using red-dye-NHS fluorescent labeling.
Each purified MtDXPS sample was labeled with red-dye-NHS second generation dye, according to the supplied protocol. Measurements were performed in 100 m M Tris-HCl (pH 7.6) containing 0.05% Tween-20 and 5% DMSO in premium treated capillaries.
The final concentration of each labeled protein in the assay was 100 n M. The inhibitors were titrated in 1:1 dilutions according to the supplier’s recommendations. All binding reactions were incubated at room temperature for 30 min before loading, and then pre-incubated for 5 min at room temperature after loading into the capillaries. Experiments were performed in duplicates, using 40% LED power, medium MST power, laser on time 20 s, and laser off time 3 s. Kds of the inhibitors were extracted from raw data at a 10–20 s on time according to the manufacturer’s instructions. A denaturation test was performed to exclude any nonspecific spectral interactions between the inhibitors […]
The solutions were vortexed, and then the rest of the assay components was added in the following order: HEPES, pH = 8 (100 m M), bovine serum albumin (1 mg/mL), cysteine (2 mM), ThDP (0.325 μM), coenzyme-A (150 μM), TCEP (300 μM), pyruvate (150 μM) and MgCl2 (1 mM). […] Porcine PDH (final concentration of 0.01 U/ mL) was then added to initiate the reactions, which were monitored spectrophotometrically by measuring the […]

HepG2 = assay: toxicity against human cell lines; assay type: cell-based; details: HepG2, 48 h, read-out: Toxicity Human cell lines EC50 (μM) HepG2
HEK293 = assay: toxicity against human cell lines; assay type: cell-based; details: HEK293, 48 h, read-out: Toxicity Human cell lines EC50 (μM) HEK293
MtDXPS [3] = target: T1, MtDXPS
[4] = system: E. coli strain BL21 (DE3) pQEYAEM; assay: microbe, parasite or virus in culture; assay type: cell-based; details: Escherichia coli, Fig. 6A
zebrafish larvae = assay: toxicity against zebrafish larvae; assay type: in vivo; details: Table S4, 10 larvae per condition
DrDXPS (WT) = DrDXPS (WT) (Deinococcus radiodurans, UniProt Q9RUB5); assay: biochemical; assay type: biochemical; details: IC50, Fig. 5F/G, DrDXPS (WT)
[5] = system: E. coli strain BL21 (DE3) pET22b-H6[…]; assay: microbe, parasite or virus in culture; assay type: cell-based; details: Escherichia coli, Fig. 6B
MtDXPS [6] = target: T1, MtDXPS; assay: biochemical
MtDXPS [7] = target: T1, MtDXPS; assay: biochemical; details: for mode of inhibition on MtDXPS: MOI study, comparison of IC50 under varied [ThDP], [PYR], [D-GAP]; for equilibration time (slow-binding): time-dependent progress curves, Fig. 4A, inhibitor 100 µM
A549 = assay: toxicity against human cell lines; assay type: cell-based; details: A549, 48 h, read-out: Toxicity Human cell lines EC50 (μM) A549
M. tuberculosis strains = assay: MIC against multiple M. tuberculosis strains, absolute concentration method on 7H10 agar; assay type: cell-based; details: Mycobacterium tuberculosis
[8] = [IPTG] 0.5 mM (E. coli IspC overexpression)
[9] = [ThDP] 0.1 μM (1.6x Km), [PYR] 0.5 mM (2.4x), [D-GAP] […] (1.5x)
[10] = [ThDP] 0.1 μM (1.6x Km), [PYR] […] (1.2x), [D-GAP] 0.5 mM (2.9x)
[11] = [ThDP] 0.1 μM (1.6x Km), [PYR] […] (1.2x), [D-GAP] […] (1.5x)
[12] = [ThDP] 0.2 μM (3.2x Km), [PYR] […] (1.2x), [D-GAP] […] (1.5x)
[13] = [IPTG] 0.5 mM (MtDXPS overexpression)
[14] = Morrison constant Ki* against MtDXPS, two-step tight-binding Morrison model, Dynafit, text and Fig. 4C–E
[15] = read-out: Antitubercular activity Strain & MIC (μM) A
[16] = read-out: Antitubercular activity Strain & MIC (μM) B
[17] = read-out: Antitubercular activity Strain & MIC (μM) C
[18] = read-out: Antitubercular activity Strain & MIC (μM) D
[19] = read-out: Antitubercular activity Strain & MIC (μM) E
[20] = read-out: Antitubercular activity Strain & MIC (μM) F
[21] = susceptible, DR, MDR and XDR strains, read-out: antitubercular activity (MIC) against multiple M. tuberculosis strains

T1 sequence (P9WNS3 whole entry, looked up): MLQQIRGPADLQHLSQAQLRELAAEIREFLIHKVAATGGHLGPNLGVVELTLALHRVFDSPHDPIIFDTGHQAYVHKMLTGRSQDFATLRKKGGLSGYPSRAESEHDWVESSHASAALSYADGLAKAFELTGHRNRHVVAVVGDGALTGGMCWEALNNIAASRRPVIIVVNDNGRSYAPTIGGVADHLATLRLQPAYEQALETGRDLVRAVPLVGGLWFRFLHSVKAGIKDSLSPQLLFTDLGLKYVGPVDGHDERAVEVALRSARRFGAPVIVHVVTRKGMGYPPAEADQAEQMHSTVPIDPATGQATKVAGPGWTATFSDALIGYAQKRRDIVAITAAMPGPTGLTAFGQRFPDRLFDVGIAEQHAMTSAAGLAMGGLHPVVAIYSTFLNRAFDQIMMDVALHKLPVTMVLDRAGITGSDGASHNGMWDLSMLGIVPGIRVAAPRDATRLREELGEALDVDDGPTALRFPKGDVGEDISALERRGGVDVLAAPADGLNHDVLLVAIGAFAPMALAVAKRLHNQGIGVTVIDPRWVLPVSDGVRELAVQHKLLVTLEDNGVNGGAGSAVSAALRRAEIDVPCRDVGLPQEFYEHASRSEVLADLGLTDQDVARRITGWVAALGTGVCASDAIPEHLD
Sequence of DrDXPS (WT) (Q9RUB5 whole entry, looked up): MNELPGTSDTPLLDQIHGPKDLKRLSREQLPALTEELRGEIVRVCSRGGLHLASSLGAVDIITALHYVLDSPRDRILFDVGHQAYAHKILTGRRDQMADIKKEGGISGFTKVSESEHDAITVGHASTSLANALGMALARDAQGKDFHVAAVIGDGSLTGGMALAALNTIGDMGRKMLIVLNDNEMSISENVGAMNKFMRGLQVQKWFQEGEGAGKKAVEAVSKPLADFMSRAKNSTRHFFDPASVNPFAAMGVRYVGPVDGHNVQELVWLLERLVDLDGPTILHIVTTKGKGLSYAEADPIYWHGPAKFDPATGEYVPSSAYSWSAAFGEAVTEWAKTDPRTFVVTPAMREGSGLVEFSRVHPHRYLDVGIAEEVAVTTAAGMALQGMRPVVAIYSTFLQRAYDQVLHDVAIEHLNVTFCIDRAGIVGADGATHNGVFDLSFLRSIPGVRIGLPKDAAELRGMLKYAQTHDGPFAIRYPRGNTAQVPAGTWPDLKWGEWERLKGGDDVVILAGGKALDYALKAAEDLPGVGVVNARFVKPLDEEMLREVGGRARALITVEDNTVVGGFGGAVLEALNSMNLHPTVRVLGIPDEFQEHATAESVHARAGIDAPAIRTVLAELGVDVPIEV

## ON=C(Cc1ccc(Cl)cc1)c1ccc(O)cc1O [Compound 9]
E. coli TolC
  MIC: 21.9 ± 1.3 µM (≈ 6.08 µg/mL)
[1]
  half-life at 10 µM: 20 min
MtDXPS [2]
  Kd: 0.221 µM and 0.2 µM
HepG2
  EC50: > 50 µM
HEK293
  EC50: > 50 µM
MtDXPS [3]
  hit validation (false-positive check): true inhibitors
[4]; [IPTG] 0 mM
  MIC: 12 ± 3 µM (≈ 3.33 µg/mL)
[4]; [8]
  MIC: 10 ± 1 µM (≈ 2.78 µg/mL)
Zebrafish larvae; 2 µM, 24 h (2 dpf)
  number of living zebrafish larvae: 10
Zebrafish larvae; 2 µM, 48 h (3 dpf)
  number of living zebrafish larvae: 10
Zebrafish larvae; 2 µM, 72 h (4 dpf)
  number of living zebrafish larvae: 10
Zebrafish larvae; 2 µM, 96 h (5 dpf)
  number of living zebrafish larvae: 10
Zebrafish larvae; 10 µM, 24 h (2 dpf)
  number of living zebrafish larvae: 10
Zebrafish larvae; 10 µM, 48 h (3 dpf)
  number of living zebrafish larvae: 10
Zebrafish larvae; 10 µM, 72 h (4 dpf)
  number of living zebrafish larvae: 10
Zebrafish larvae; 10 µM, 96 h (5 dpf)
  number of living zebrafish larvae: 10
Zebrafish larvae; 30 µM, 24 h (2 dpf)
  number of living zebrafish larvae: 10
Zebrafish larvae; 30 µM, 48 h (3 dpf)
  number of living zebrafish larvae: 10
Zebrafish larvae; 30 µM, 72 h (4 dpf)
  number of living zebrafish larvae: 10
Zebrafish larvae; 30 µM, 96 h (5 dpf)
  number of living zebrafish larvae: 10
Zebrafish larvae; 100 µM, 24 h (2 dpf)
  number of living zebrafish larvae: 5
Zebrafish larvae; 100 µM, 48 h (3 dpf)
  number of living zebrafish larvae: 2
Zebrafish larvae; 100 µM, 72 h (4 dpf)
  number of living zebrafish larvae: 0
Zebrafish larvae; 100 µM, 96 h (5 dpf)
  number of living zebrafish larvae: 0
DrDXPS (WT); [9]
  IC50: 59 ± 10 µM
DrDXPS (WT); [10]
  IC50: 70 ± 11 µM
DrDXPS (WT); [11]
  IC50: 33 ± 4 µM
DrDXPS (WT); [12]
  IC50: 54 ± 7 µM
[5]; [IPTG] 0 mM
  MIC: 15 ± 1 µM (≈ 4.17 µg/mL)
[5]; [13]
  MIC: > 200 µM
MtDXPS [6]; K i* (μM), Table 1B, oxime derivatives, MtDXPS
  Ki: 0.3 ± 0.02 µM
MtDXPS [6]; [14]
  Ki: 0.271 µM and 0.2 to 0.3 µM
MtDXPS [7]; IC50 (μM)
  IC50: 44 ± 8 µM
MtDXPS [7]; IC50 against MtDXPS
  IC50: 140 ± 12 µM
MtDXPS [7]; IC50 against MtDXPS (MOI study)
  IC50: 17 µM and 35 µM and 58 µM and 121 µM
MtDXPS [7]
  mode of inhibition on MtDXPS: competitive with ThDP and both substrates
  equilibration time (slow-binding): ~100 s
A549
  EC50: > 50 µM
M. tuberculosis strains; [15]
  MIC: 10 µM (≈ 2.78 µg/mL)
M. tuberculosis strains; [16]
  MIC: 10 µM (≈ 2.78 µg/mL)
M. tuberculosis strains; [17]
  MIC: 10 µM (≈ 2.78 µg/mL)
M. tuberculosis strains; [18]
  MIC: 10 µM (≈ 2.78 µg/mL)
M. tuberculosis strains; [19]
  MIC: 10 µM (≈ 2.78 µg/mL)
M. tuberculosis strains; [20]
  MIC: 5 to 10 µM (≈ 1.39 to 2.78 µg/mL)
M. tuberculosis strains; [21]
  MIC: 5 to 10 µM (≈ 1.39 to 2.78 µg/mL)

## Cc1nc(N)sc1-c1csc(Nc2ccc(C(F)(F)F)cc2)n1 [Compound 10]
E. coli TolC
  MIC: 22.2 ± 3.1 µM (≈ 7.91 µg/mL)
[1]
  half-life at 10 µM: > 60 min
MtDXPS [2]
  Kd: 0.206 µM and 0.2 µM
HepG2
  EC50: > 50 µM
HEK293
  EC50: 25 to 50 µM
MtDXPS [3]
  hit validation (false-positive check): true inhibitors
[4]; [IPTG] 0 mM
  MIC: 15 ± 3 µM (≈ 5.35 µg/mL)
[4]; [8]
  MIC: 17 ± 2 µM (≈ 6.06 µg/mL)
Zebrafish larvae; 2 µM, 24 h (2 dpf)
  number of living zebrafish larvae: 10
Zebrafish larvae; 2 µM, 48 h (3 dpf)
  number of living zebrafish larvae: 10
Zebrafish larvae; 2 µM, 72 h (4 dpf)
  number of living zebrafish larvae: 10
Zebrafish larvae; 2 µM, 96 h (5 dpf)
  number of living zebrafish larvae: 10
Zebrafish larvae; 10 µM, 24 h (2 dpf)
  number of living zebrafish larvae: 10
Zebrafish larvae; 10 µM, 48 h (3 dpf)
  number of living zebrafish larvae: 10
Zebrafish larvae; 10 µM, 72 h (4 dpf)
  number of living zebrafish larvae: 10
Zebrafish larvae; 10 µM, 96 h (5 dpf)
  number of living zebrafish larvae: 10
Zebrafish larvae; 30 µM, 24 h (2 dpf)
  number of living zebrafish larvae: 2
Zebrafish larvae; 30 µM, 48 h (3 dpf)
  number of living zebrafish larvae: 0
Zebrafish larvae; 30 µM, 72 h (4 dpf)
  number of living zebrafish larvae: 0
Zebrafish larvae; 30 µM, 96 h (5 dpf)
  number of living zebrafish larvae: 0
Zebrafish larvae; 100 µM, 24 h (2 dpf)
  number of living zebrafish larvae: 0
Zebrafish larvae; 100 µM, 48 h (3 dpf)
  number of living zebrafish larvae: 0
Zebrafish larvae; 100 µM, 72 h (4 dpf)
  number of living zebrafish larvae: 0
Zebrafish larvae; 100 µM, 96 h (5 dpf)
  number of living zebrafish larvae: 0
DrDXPS (WT); [9]
  IC50: 108 ± 20 µM
DrDXPS (WT); [10]
  IC50: 132 ± 22 µM
DrDXPS (WT); [11]
  IC50: 60 ± 11 µM
DrDXPS (WT); [12]
  IC50: 81 ± 12 µM
[5]; [IPTG] 0 mM
  MIC: 13 ± 1 µM (≈ 4.63 µg/mL)
[5]; [13]
  MIC: 35 ± 3 µM (≈ 12.5 µg/mL)
MtDXPS [6]; K i* (μM), Table 1C, aminothiazole derivatives, MtDXPS
  Ki: 0.2 ± 0.02 µM
MtDXPS [6]; [14]
  Ki: 0.212 µM and 0.2 to 0.3 µM
MtDXPS [7]; IC50 (μM)
  IC50: 32 ± 3 µM
MtDXPS [7]; IC50 against MtDXPS
  IC50: 118 ± 10 µM
MtDXPS [7]
  mode of inhibition on MtDXPS: competitive with ThDP and both substrates
  equilibration time (slow-binding): ~100 s
A549
  EC50: > 50 µM
M. tuberculosis strains; [15]
  MIC: > 10 µM
M. tuberculosis strains; [16]
  MIC: 5 µM (≈ 1.78 µg/mL)
M. tuberculosis strains; [17]
  MIC: 5 µM (≈ 1.78 µg/mL)
M. tuberculosis strains; [18]
  MIC: 10 µM (≈ 3.56 µg/mL)
M. tuberculosis strains; [19]
  MIC: 5 to 10 µM (≈ 1.78 to 3.56 µg/mL)
M. tuberculosis strains; [20]
  MIC: 5 to 10 µM (≈ 1.78 to 3.56 µg/mL)
M. tuberculosis strains; [21]
  MIC: 5 to 10 µM (≈ 1.78 to 3.56 µg/mL)
